Assays:
NIH3T3 cells [1] = assay: Reactive oxygen species increased by ultraviolet rays in NIH3T3 cells (DCFH-DA, flow cytometry); format: cell-based, mouse; settings: 50 μM or 1000 μM, UV 8 J/cm^2, 24 hours after UV, FIG. 6
Experimental: (§1) In this example, the aim was to confirm the effect of the peptide according to an embodiment on the antioxidant effect in damaged skin, by evaluating the change in the level of reactive oxygen species in skin cells increased by ultraviolet irradiation.
(§2) Specifically, NIH3T3 cells or HaCaT cells were seeded in a 6-well plate at a density of 5×10^5 cells/well and cultured for 24 hours. Next, the cells were washed once with serum-free DMEM media, and 50 μM or 1000 μM of a peptide consisting of an amino acid sequence of SEQ ID NO: 1 was dispensed into 1 mL of the serum-free media, and cultured in a CO2 incubator at 37 °C for […]. Next, the above culture was transferred to an e-tube, mixed with 1 ml of PBS, and dispensed into a well plate. Next, using a UV irradiator (VILBER LOURMAT, Cat No.: 3102-BSU, France), 8 J/cm^2 ultraviolet rays were irradiated to NIH3T3 cells, and 15 mJ/cm^2 ultraviolet rays were irradiated to HaCaT cells. Next, the PBS in the well plate was removed, 900 μL of the culture medium in which the peptides were dispensed was added, and the plate was cultured in a CO2 incubator at 37 °C for 24 hours. Next, the culture was treated with DCFH-DA (2′,7′-dichlorofluorescin diacetate), wrapped in foil, and cultured in a CO2 incubator at 37 °C for 30 minutes. […] After washing the centrifuged cells with PBS, fluorescence values were measured through flow cytometry (FACS, BD, USA). […]

AQP3 = assay: Expression of aquaporin-3 (AQP3) in HaCaT cells, RT-PCR; format: cell-based, human; settings: 50 μM or 1000 μM, 24 hours, vs untreated control, FIG. 4, 5B
Experimental: (§3) In this example, the aim was to confirm the effect of the peptides according to an example on strengthening the skin barrier, by evaluating the expression levels of sirtuin-1 (SIRT-1) or aquaporin-3 (AQP3).
(§4) Specifically, HaCaT cells were seeded in a 6-well plate at a density of 3×10^5 cells/well and cultured for 24 hours. Next, the cells were washed once with serum-free DMEM media, and 50 μM or 1000 μM of a peptide consisting of an amino acid sequence of SEQ ID NO: 1 was dispensed into 1 mL of the serum-free media, and cultured in a CO2 incubator at 37 °C for 24 hours. Next, the culture was washed twice with PBS, and RNA was isolated from the culture using easy blue (iNtRON, Korea). Using an RT kit (Enzynomics, Korea), 1 μg of the isolated RNA was reverse transcribed to synthesize the respective cDNA. Next, polymerase chain reaction was performed using the cDNAs and primers sirtuin-1 and aquaporin-3. Meanwhile, an untreated group was used as a control group, and a group to which EGF was added (EGF) was used as a positive control group, the nucleotide sequences of the primers used in this example are shown in Table 3 below.

elastin = assay: Expression of elastin in NIH3T3 cells, RT-PCR; format: cell-based, mouse; settings: 50 μM or 1000 μM, 24 hours, vs untreated control, FIG. 2, 3C
Experimental: (§5) In this example, the aim was to confirm the effect of the peptide according to an example on improving endogenous skin aging, including improvement of wrinkles and enhancement of elasticity, etc., by evaluating the expression levels of collagen type 1 (Col1a1), fibronectin, or elastin, which are known components of the dermis.
(§6) Specifically, NIH3T3 cells were seeded in a 6-well plate at a density of 3×10^5 cells/well and cultured for 24 hours. Next, the cells were washed once with serum-free DMEM media, and 50 μM or 1000 μM of a peptide consisting of an amino acid sequence of SEQ ID NO: 1 was dispensed into 1 mL of the serum-free media, and cultured in a CO2 incubator at 37 °C for 24 hours. Next, the culture was washed twice with PBS, and RNA was isolated from the culture using easy blue (iNtRON, Korea). Using an RT kit (Enzynomics, Korea), 1 μg of the isolated RNA was reverse transcribed to synthesize the respective cDNA. Next, polymerase chain reaction (PCR) was performed using the cDNAs and primers Col1a1, fibronectin, and elastin. Meanwhile, an untreated group was used as a control group, and a group to which TGF-β1 was added (TGF-β1) was used as a positive control group, the nucleotide sequences of the primers used in this example are shown in Table 2 below.

HaCaT cells [2] = assay: Proliferation (MTT survival rate) of HaCaT human keratinocytes; format: cell-based; settings: 50 μM or 100 μM, serum-free DMEM, 72 hours, MTT 540 nm, vs untreated control, FIG. 1B
Experimental: (§7) In this example, the aim was to confirm the effect of a peptide according to an example on proliferation of skin cells, by evaluating changes in survival rate of NIH3T3 cells, which are mouse fibroblasts, or HaCaT cells, which are human keratinocytes.
(§8) Specifically, NIH3T3 cells or HaCaT cells were seeded in a 96-well plate at a density of 5×10^3 cells/well and cultured for 24 hours. Next, the cells were washed once with serum-free DMEM media, and 50 μM or 100 μM of a peptide consisting of an amino acid sequence of SEQ ID NO: 1 was dispensed into 200 μL of the serum-free media, and cultured in a CO2 incubator at 37 °C for 72 hours. Next, the culture was washed twice with PBS, and 0.5 mg/ml of MTT (Sigma, Cat. No.: M2003, USA) solution was dispensed into each well. Next, after being shaded from light, it was cultured in a CO2 incubator at 37 °C for 4 hours. Next, the absorbance at 540 nm was measured. In this example, an untreated group was used as the control group, and a group to which insulin-like growth factor was added (IGF) was used as the positive control group.

SIRT-1 = assay: Expression of sirtuin-1 (SIRT-1) in HaCaT cells, RT-PCR; format: cell-based, human; settings: 50 μM or 1000 μM, 24 hours, vs untreated control, FIG. 4, 5A
Experimental: as §3, §4

HaCaT cells [3] = assay: Reactive oxygen species increased by ultraviolet rays in HaCaT cells (DCFH-DA, flow cytometry); format: cell-based, human; settings: 50 μM or 1000 μM, UV 15 mJ/cm^2, 24 hours after UV, FIG. 7
Experimental: as §1, §2

NIH3T3 cells [4] = assay: Proliferation (MTT survival rate) of NIH3T3 mouse fibroblasts; format: cell-based; settings: 50 μM or 100 μM, serum-free DMEM, 72 hours, MTT 540 nm, vs untreated control, FIG. 1A
Experimental: as §7, §8

Col1a1 = assay: Expression of collagen type 1 (Col1a1) in NIH3T3 cells, RT-PCR; format: cell-based, mouse; settings: 50 μM or 1000 μM, 24 hours, vs untreated control, FIG. 2, 3A
Experimental: as §5, §6

fibronectin = assay: Expression of fibronectin in NIH3T3 cells, RT-PCR; format: cell-based, mouse; settings: 50 μM or 1000 μM, 24 hours, vs untreated control, FIG. 2, 3B
Experimental: as §5, §6

## DGWNY [SEQ ID NO: 1]
NIH3T3 cells [1]
  level of reactive oxygen species in fibroblasts increased by ultraviolet irradiation: reduced
AQP3
  expression of AQP3: increased
elastin
  expression of elastin: increased
HaCaT cells [2]
  proliferation of keratinocytes: promoted
SIRT-1
  expression of SIRT-1: increased
HaCaT cells [3]
  level of reactive oxygen species in keratinocytes increased by ultraviolet irradiation: reduced
NIH3T3 cells [4]
  proliferation of fibroblasts: promoted
Col1a1
  expression of Col1a1: increased
fibronectin
  expression of fibronectin: increased

— patent publication US20260373042A1, “PEPTIDE HAVING ACTIVITY OF IMPROVING STATE OF SKIN, AND USE THEREOF” (CAREGEN CO., LTD., priority 2022, published 2026)
